{"source": "patent US12162893B2", "about": "(Erasca, Inc., priority 2020, dated 2024)", "target": "T1, mutant G12C K-RAS (Homo sapiens, UniProt P01116, G12C)", "T1 construct": "made in house; host or cells: E. coli BL21", "assay": "covalent adduct formation (CAF) with mutant G12C K-RAS", "assay_type": "binding", "set-up": "CAF: unit not given here", "conditions": "for % CAF (60 min): Table 2, Pyrimidone Core-Morpholine Substituted; for % CAF @ 10 μM,1 h: Table 6", "method": "Embodiments disclosed herein are further illustrated by the following examples in Tables 1-4 and the Examples hereinbelow. The Tables indicate the compound number, structure, the observed mass spectral molecular weight peak, and covalent adduct formation (CAF) with a mutant G12C K-RAS after 60 minutes at a concentration of 10 micromolar.", "key": {"[1]": {"conditions": "after 60 minutes at 10 micromolar"}}}
{"compound": "C=CC(=O)N1C[C@H](C)N(c2nc(=O)n3c4c(c(-c5c(O)cccc5F)c(Cl)cc24)OC[C@H]3CO)C[C@H]1C", "note": "[Example 32, (3R,10R)-7-((2S,5R)-4-acryloyl-2,5-dimethylpiperazin-1-yl)-9-chloro-10-(2-fluoro-6-hydroxyphenyl)-3-(hydroxymethyl)-2H-[1,4]oxazino[2,3,4-ij]quinazolin-5(3H)-one]", "values": [{"measurement": "% CAF (60 min)", "setting": "[1]", "result": 0, "unit": "%"}]}
{"compound": "C=CC(=O)N1C[C@H](C)N(c2nc(=O)n3c4c(c(-c5c(O)cccc5F)c(Cl)cc24)OC[C@H]3CN2CCOCC2)C[C@H]1C", "note": "(atropisomer, axis not shown) [Example 209, (3R,10S)-7-((2S,5R)-4-acryloyl-2,5-dimethylpiperazin-1-yl)-9-chloro-10-(2-fluoro-6-hydroxyphenyl)-3-(morpholinomethyl)-2,3-dihydro-5H-[1,4]oxazino[2,3,4-ij]quinazolin-5-one]", "values": [{"measurement": "% CAF @ 10 μM,1 h", "result": 85, "unit": "%"}]}
{"compound": "C=CC(=O)N1C[C@H](C)N(c2nc(=O)n3c4c(c(-c5c(O)cccc5F)c(Cl)cc24)OC[C@H]3CN2CCN(C)CC2)C[C@H]1C", "note": "(atropisomer, axis not shown) [Example 300, (3R,10R)-7-((2S,5R)-4-acryloyl-2,5-dimethylpiperazin-1-yl)-9-chloro-10-(2-fluoro-6-hydroxyphenyl)-3-((4-methylpiperazin-1-yl)methyl)-2,3-dihydro-5H-[1,4]oxazino[2,3,4-ij]quinazolin-5-one]", "values": [{"measurement": "% CAF @ 10 μM,1 h", "result": 0, "unit": "%"}]}
{"compound": "C=CC(=O)N1C[C@H](C)N(c2nc(=O)n3c4c(c(-c5ccc(F)cc5F)c(Cl)cc24)OC[C@@H]3COC2CCN(C)CC2)C[C@H]1C", "note": "[Example 276, (3S)-7-((2S,5R)-4-acryloyl-2,5-dimethylpiperazin-1-yl)-9-chloro-10-(2,4-difluorophenyl)-3-(((1-methylpiperidin-4-yl)oxy)methyl)-2H-[1,4]oxazino[2,3,4-ij]quinazolin-5(3H)-one]", "values": [{"measurement": "% CAF @ 10 μM,1 h", "result": 73.5, "unit": "%"}]}
{"compound": "C=CC(=O)N1C[C@H](C)N(c2nc(=O)n3c4c(c(-c5ccc(F)cc5F)c(Cl)cc24)O[C@H](CCCN2C4CCC2COC4)C3)C[C@H]1C", "note": "[Example 261, (2R)-2-(3-(3-oxa-8-azabicyclo[3.2.1]octan-8-yl)propyl)-7-((2S,5R)-4-acryloyl-2,5-dimethylpiperazin-1-yl)-9-chloro-10-(2,4-difluorophenyl)-2,3-dihydro-5H-[1,4]oxazino[2,3,4-ij]quinazolin-5-one]", "values": [{"measurement": "% CAF @ 10 μM,1 h", "result": 21.1, "unit": "%"}]}
{"compound": "C=CC(=O)N1C[C@H](C)N(c2nc(=O)n3c4c(c(-c5c(O)cccc5F)c(Cl)cc24)OC[C@H]3Cn2cccn2)C[C@H]1C", "note": "(atropisomer, axis not shown) [Example 245, (3R,10R)-3-((1H-pyrazol-1-yl)methyl)-7-((2S,5R)-4-acryloyl-2,5-dimethylpiperazin-1-yl)-9-chloro-10-(2-fluoro-6-hydroxyphenyl)-2H-[1,4]oxazino[2,3,4-ij]quinazolin-5(3H)-one]", "values": [{"measurement": "% CAF @ 10 μM,1 h", "result": 0, "unit": "%"}]}
{"compound": "C=CC(=O)N1C[C@H](C)N(c2nc(=O)n3c4c(c(-c5cccc6ccccc56)c(Cl)cc24)OC[C@H]3Cn2cccn2)C[C@H]1C", "note": "(atropisomer, axis not shown) [Example 292, (3R,10S)-3-((1H-pyrazol-1-yl)methyl)-7-((2S,5R)-4-acryloyl-2,5-dimethylpiperazin-1-yl)-9-chloro-10-(naphthalen-1-yl)-2,3-dihydro-5H-[1,4]oxazino[2,3,4-ij]quinazolin-5-one]", "values": [{"measurement": "% CAF @ 10 μM,1 h", "result": 95, "unit": "%"}]}
{"compound": "C=CC(=O)N1C[C@H](C)N(c2nc(=O)n3c4c(c(-c5c(O)cccc5F)c(Cl)cc24)OC[C@@H]3Cn2cccn2)C[C@H]1C", "note": "(atropisomer, axis not shown) [Example 243, (3S,10S)-3-((1H-pyrazol-1-yl)methyl)-7-((2S,5R)-4-acryloyl-2,5-dimethylpiperazin-1-yl)-9-chloro-10-(2-fluoro-6-hydroxyphenyl)-2H-[1,4]oxazino[2,3,4-ij]quinazolin-5(3H)-one]", "values": [{"measurement": "% CAF @ 10 μM,1 h", "result": 80.6, "unit": "%"}]}
{"compound": "C=CC(=O)N1C[C@H](C)N(c2nc(=O)n3c4c(c(-c5ccc(F)cc5F)c(Cl)cc24)OC[C@@H]3CN2CCOCC2)C[C@H]1C", "note": "[Example 203, (3S)-7-((2S,5R)-4-acryloyl-2,5-dimethylpiperazin-1-yl)-9-chloro-10-(2,4-difluorophenyl)-3-(morpholinomethyl)-2H-[1,4]oxazino[2,3,4-ij]quinazolin-5(3H)-one]", "values": [{"measurement": "% CAF @ 10 μM,1 h", "result": 84.3, "unit": "%"}]}
{"compound": "C=CC(=O)N1C[C@H](C)N(c2nc(=O)n3c4c(c(-c5ccc(F)cc5F)c(Cl)cc24)OC[C@H]3Cn2ccnc2)C[C@H]1C", "note": "[Example 267, (3R)-3-((1H-imidazol-1-yl)methyl)-7-((2S,5R)-4-acryloyl-2,5-dimethylpiperazin-1-yl)-9-chloro-10-(2,4-difluorophenyl)-2H-[1,4]oxazino[2,3,4-ij]quinazolin-5(3H)-one]", "values": [{"measurement": "% CAF @ 10 μM,1 h", "result": 13.6, "unit": "%"}]}
{"compound": "C=CC(=O)N1CCN(c2nc(=O)n3c4c(c(-c5c(O)cccc5F)c(Cl)cc24)OC[C@H]3CN2CCOCC2)[C@@H](C)C1", "note": "[Example 199, (3R,10R)-7-((S)-4-acryloyl-2-methylpiperazin-1-yl)-9-chloro-10-(2-fluoro-6-hydroxyphenyl)-3-(morpholinomethyl)-2,3-dihydro-5H-[1,4]oxazino[2,3,4-ij]quinazolin-5-one]", "values": [{"measurement": "% CAF @ 10 μM,1 h", "result": 0, "unit": "%"}]}
{"compound": "C=CC(=O)N1CCN(c2nc(=O)n3c4c(c(-c5c(O)cccc5F)c(Cl)cc24)OC[C@@H]3CN2CCOCC2)[C@@H](C)C1", "note": "[Example 195, (3S,10R)-7-((S)-4-acryloyl-2-methylpiperazin-1-yl)-9-chloro-10-(2-fluoro-6-hydroxyphenyl)-3-(morpholinomethyl)-2,3-dihydro-5H-[1,4]oxazino[2,3,4-ij]quinazolin-5-one]", "values": [{"measurement": "% CAF @ 10 μM,1 h", "result": 0, "unit": "%"}]}
{"compound": "C=CC(=O)N1C[C@H](C)N(c2nc(=O)n3c4c(c(-c5c(O)cccc5F)c(Cl)cc24)OC[C@@H]3CN2CCC(F)(F)C2)C[C@H]1C", "note": "[Example 221, (3S,10S)-7-((2S,5R)-4-acryloyl-2,5-dimethylpiperazin-1-yl)-9-chloro-3-((3,3-difluoropyrrolidin-1-yl)methyl)-10-(2-fluoro-6-hydroxyphenyl)-2,3-dihydro-5H-[1,4]oxazino[2,3,4-ij]quinazolin-5-one]", "values": [{"measurement": "% CAF @ 10 μM,1 h", "result": 70.9, "unit": "%"}]}
{"compound": "C=CC(=O)N1CCN(c2cc(=O)n3c4c(c(-c5c(C)ccc6[nH]ncc56)ccc24)CCC3)CC1", "note": "[Example 46, 1-(4-acryloylpiperazin-1-yl)-8-(5-methyl-1H-indazol-4-yl)-6,7-dihydropyrido[3,2,1-ij]quinolin-3(5H)-one]", "values": [{"measurement": "CAF", "setting": "Table 3, Pyridone Core-Morpholine Unsubstituted, after 60 minutes at 10 micromolar", "result": 12}]}
{"compound": "C=CC(=O)N1C[C@H](C)N(c2nc(=O)n3c4c(c(-c5c(O)cccc5F)c(Cl)cc24)OC[C@@H]3CO)C[C@H]1C", "note": "[Example 28, (3S,10R)-7-((2S,5R)-4-acryloyl-2,5-dimethylpiperazin-1-yl)-9-chloro-10-(2-fluoro-6-hydroxyphenyl)-3-(hydroxymethyl)-2H-[1,4]oxazino[2,3,4-ij]quinazolin-5(3H)-one]", "values": [{"measurement": "% CAF (60 min)", "setting": "[1]", "result": 1.3, "unit": "%"}]}
